Assay results reported in PubChem BioAssay AID330 (DTP/NCI, 2004).
Values joined by “and” are separate entries in the source; they are usually repeats but may differ in a detail not shown here. Equal values may be shown once. Inconclusive results and toxic doses are left out. How the source made its calls: active means survival T/C of 150% or more; inactive means T/C below 125% in these data.

Tested on: P388 leukemia ip, CD2F1 mice, survival T/C
Experiment: NCI In Vivo Anticancer Drug Screen. Data for tumor model P388 Leukemia (intraperitoneal) in CD2F1 (CDF1) mice
Details: endpoint: median survival time, higher = longer survival
Outline: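 Mice carrying the transplanted tumor received test compound or vehicle. Survival was recorded in each group, and the value is the treated-group measurement divided by that of the vehicle-treated control group.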

[1] = dose: 100.0 mg/kg/injection, schedule: Q04DX003 (ip), vehicle: saline with Tween-80
[2] = dose: 200.0 mg/kg/injection, schedule: Q04DX003 (ip), vehicle: saline with Tween-80
[3] = dose: 400.0 mg/kg/injection, schedule: Q04DX003 (ip), vehicle: saline with Tween-80
[4] = dose: 50.0 mg/kg/injection, schedule: Q01DX005 (ip), vehicle: Klucel + Tween-80
[5] = dose: 100.0 mg/kg/injection, schedule: Q01DX005 (ip), vehicle: Klucel + Tween-80
[6] = dose: 200.0 mg/kg/injection, schedule: Q01DX005 (ip), vehicle: Klucel + Tween-80
[7] = dose: 60.0 mg/kg/injection, schedule: Q01DX005 (ip), vehicle: Klucel (hydroxypropylcellulose) (HPC)
[8] = dose: 120.0 mg/kg/injection, schedule: Q01DX005 (ip), vehicle: Klucel (hydroxypropylcellulose) (HPC)
[9] = dose: 240.0 mg/kg/injection, schedule: Q01DX005 (ip), vehicle: Klucel (hydroxypropylcellulose) (HPC)
[10] = dose: 25.0 mg/kg/injection, schedule: Q04DX003 (ip), vehicle: saline with Tween-80
[11] = dose: 50.0 mg/kg/injection, schedule: Q04DX003 (ip), vehicle: saline with Tween-80
[12] = dose: 12.5 mg/kg/injection, schedule: Q01DX009 (ip), vehicle: saline with Tween-80
[13] = dose: 25.0 mg/kg/injection, schedule: Q01DX009 (ip), vehicle: saline with Tween-80

Measured: T/C

Cn1c2ccccc2c(=O)c2c(O)cc3c(c21)CC(C1(C)CO1)O3 (stereo unspecified)
inactive: dose: 2.0 mg/kg/injection, schedule: Q01DX005 (ip), vehicle: Klucel (hydroxypropylcellulose) (HPC) 99 % of control | dose: 4.0 mg/kg/injection, schedule: Q01DX005 (ip), vehicle: Klucel (hydroxypropylcellulose) (HPC) 105 % of control and 107 % of control | dose: 8.0 mg/kg/injection, schedule: Q01DX005 (ip), vehicle: Klucel (hydroxypropylcellulose) (HPC) 103 % of control and 107 % of control | dose: 16.0 mg/kg/injection, schedule: Q01DX005 (ip), vehicle: Klucel (hydroxypropylcellulose) (HPC) 108 % of control and 116 % of control

CC(C)CCCCCCCCCCCCC(=O)NCC(=O)NC1C(O)C(O)C(Nc2ncnc3nc[nH]c23)C(O)C1O (stereo unspecified)
inactive: dose: 0.5 mg/kg/injection, schedule: Q01DX009 (ip), vehicle: other 105 % of control | dose: 1.0 mg/kg/injection, schedule: Q01DX009 (ip), vehicle: other 101 % of control | dose: 2.0 mg/kg/injection, schedule: Q01DX009 (ip), vehicle: other 91 % of control | dose: 4.0 mg/kg/injection, schedule: Q01DX009 (ip), vehicle: other 91 % of control | dose: 8.0 mg/kg/injection, schedule: Q01DX009 (ip), vehicle: other 101 % of control | dose: 16.0 mg/kg/injection, schedule: Q01DX009 (ip), vehicle: other 95 % of control | dose: 32.0 mg/kg/injection, schedule: Q01DX009 (ip), vehicle: other 90 % of control

C=CCn1c(=S)[nH]c2ccccc2c1=O
inactive: [1] 90 % of control | [2] 90 % of control | [3] 90 % of control

Cc1cc(=O)[nH]c(=O)n1C1OC(CO)C(O)C1O (stereo unspecified)
inactive: dose: 50.0 mg/kg/injection, schedule: Q01DX005 (ip), vehicle: saline 109 % of control | dose: 100.0 mg/kg/injection, schedule: Q01DX005 (ip), vehicle: saline 103 % of control | dose: 200.0 mg/kg/injection, schedule: Q01DX005 (ip), vehicle: saline 112 % of control

CN(C)c1ccc(C2=C(c3ccccc3)C(=O)C3(c4ccccc4)CC23c2ccc(N(C)C)cc2)cc1 (stereo unspecified)
inactive: [4] 92 % of control | [5] 90 % of control | [6] 90 % of control

Nc1nnc(-c2ccccc2)nn1
inactive: [4] 91 % of control | [5] 95 % of control | [6] 100 % of control

Cn1nc(NC(=O)C(F)(F)F)c2ncc(-c3ccc(Cl)cc3)nc21
inactive: [1] 100 % of control | [2] 90 % of control | [3] 90 % of control

CC(C)=CC[P+](CP(c1ccccc1)c1ccccc1)(c1ccccc1)c1ccccc1
inactive: dose: 3.12 mg/kg/injection, schedule: Q01DX005 (ip), vehicle: saline with Tween-80 107 % of control | dose: 6.25 mg/kg/injection, schedule: Q01DX005 (ip), vehicle: saline with Tween-80 105 % of control | dose: 12.5 mg/kg/injection, schedule: Q01DX005 (ip), vehicle: saline with Tween-80 89 % of control

CC(CCC(=O)O)(c1ccc(OC(=O)Nc2ccccc2Cl)cc1)c1ccc(OC(=O)Nc2ccccc2Cl)cc1
inactive: dose: 50.0 mg/kg/injection, schedule: Q01DX005 (ip), vehicle: saline with Tween-80 118 % of control | dose: 100.0 mg/kg/injection, schedule: Q01DX005 (ip), vehicle: saline with Tween-80 102 % of control | dose: 200.0 mg/kg/injection, schedule: Q01DX005 (ip), vehicle: saline with Tween-80 109 % of control

C[N+](C)(C)CCCOC1=Nc2ccccc2O/C1=C/c1ccccc1
inactive: dose: 3.12 mg/kg/injection, schedule: Q01DX009 (ip), vehicle: Klucel (hydroxypropylcellulose) (HPC) 96 % of control | dose: 6.25 mg/kg/injection, schedule: Q01DX009 (ip), vehicle: Klucel (hydroxypropylcellulose) (HPC) 92 % of control | dose: 12.5 mg/kg/injection, schedule: Q01DX009 (ip), vehicle: Klucel (hydroxypropylcellulose) (HPC) 98 % of control and 104 % of control

Cc1ccc(-c2nc3scc(C)n3n2)cc1
inactive: [7] 100 % of control | [8] 96 % of control | [9] 103 % of control

COc1ccc(/C=N\N=C(/[O-])c2ccccc2O)cc1.COc1ccc(/C=N\N=C(/[O-])c2ccccc2O)cc1.[OH3+].[OH3+].[Zn+2]
inactive: dose: 100.0 mg/kg/injection, schedule: Q04DX002 (ip), vehicle: saline with Tween-80 100 % of control | dose: 200.0 mg/kg/injection, schedule: Q04DX002 (ip), vehicle: saline with Tween-80 98 % of control | dose: 400.0 mg/kg/injection, schedule: Q04DX002 (ip), vehicle: saline with Tween-80 91 % of control

O=[N+]([O-])c1cc2[nH]cnc2c([N+](=O)[O-])c1N1CCCCC1
inactive: [10] 92 % of control | [11] 92 % of control | [1] 100 % of control

CCCCCCN(CCCCCC)P(=O)(N1CC1C)N1CC1C (stereo unspecified)
inactive: [12] 122 % of control | dose: 12.5 mg/kg/injection, schedule: Q04DX003 (ip), vehicle: saline 95 % of control | [13] 118 % of control | dose: 25.0 mg/kg/injection, schedule: Q04DX003 (ip), vehicle: saline 95 % of control | dose: 50.0 mg/kg/injection, schedule: Q04DX003 (ip), vehicle: saline 95 % of control

c1ccc2c(SCCCCCCCCCCCCSc3c4ccccc4nc4ccccc34)c3ccccc3nc2c1
inactive: [7] 104 % of control | [8] 98 % of control | [9] 90 % of control

COC(=O)C(CSCc1ccccc1)NC(=O)CCNC(C)=O (stereo unspecified)
inactive: dose: 12.5 mg/kg/injection, schedule: Q01DX009 (ip), vehicle: distilled water + Tween-80 97 % of control | dose: 25.0 mg/kg/injection, schedule: Q01DX009 (ip), vehicle: distilled water + Tween-80 100 % of control | dose: 50.0 mg/kg/injection, schedule: Q01DX009 (ip), vehicle: distilled water + Tween-80 91 % of control | dose: 100.0 mg/kg/injection, schedule: Q01DX009 (ip), vehicle: distilled water + Tween-80 92 % of control | dose: 200.0 mg/kg/injection, schedule: Q01DX009 (ip), vehicle: distilled water + Tween-80 91 % of control

CCCCCCCCCCCCN(C)C
inactive: [12] 100 % of control | [13] 100 % of control | dose: 50.0 mg/kg/injection, schedule: Q01DX009 (ip), vehicle: saline with Tween-80 100 % of control

CCN=C(N)N/N=C(\C)c1ccc2c(c1)Cc1cc(/C(C)=N/NC(N)=NCC)ccc1-2
inactive: dose: 0.39 mg/kg/injection, schedule: Q04DX002 (ip), vehicle: saline with Tween-80 100 % of control | dose: 0.39 mg/kg/injection, schedule: Q04DX002 (ip), vehicle: saline 98 % of control | dose: 0.78 mg/kg/injection, schedule: Q04DX002 (ip), vehicle: saline with Tween-80 94 % of control | dose: 0.78 mg/kg/injection, schedule: Q04DX002 (ip), vehicle: saline 93 % of control | dose: 1.56 mg/kg/injection, schedule: Q04DX002 (ip), vehicle: saline with Tween-80 103 % of control | dose: 1.56 mg/kg/injection, schedule: Q04DX002 (ip), vehicle: saline 102 % of control | dose: 3.12 mg/kg/injection, schedule: Q04DX002 (ip), vehicle: saline with Tween-80 101 % of control | dose: 3.12 mg/kg/injection, schedule: Q04DX002 (ip), vehicle: saline 104 % of control | dose: 6.25 mg/kg/injection, schedule: Q04DX002 (ip), vehicle: saline with Tween-80 102 % of control | dose: 6.25 mg/kg/injection, schedule: Q04DX002 (ip), vehicle: saline 105 % of control | dose: 12.5 mg/kg/injection, schedule: Q04DX002 (ip), vehicle: saline 105 % of control | dose: 25.0 mg/kg/injection, schedule: Q04DX002 (ip), vehicle: saline 102 % of control

O=C1CCC2ON=C(Br)C12 (stereo unspecified)
inactive: dose: 20.0 mg/kg/injection, schedule: Q01DX005 (ip), vehicle: distilled water + Tween-80 110 % of control | dose: 40.0 mg/kg/injection, schedule: Q01DX005 (ip), vehicle: distilled water + Tween-80 112 % of control | dose: 80.0 mg/kg/injection, schedule: Q01DX005 (ip), vehicle: distilled water + Tween-80 112 % of control

O=C(O)c1ccccc1SSc1ccccc1C(=O)O
inactive: dose: 50.0 mg/kg/injection, schedule: Q01DX009 (ip), vehicle: Klucel (hydroxypropylcellulose) (HPC) 96 % of control | dose: 100.0 mg/kg/injection, schedule: Q01DX009 (ip), vehicle: Klucel (hydroxypropylcellulose) (HPC) 102 % of control

Cn1c2nc(=O)[nH]c(=O)c-2cc2ccccc21
inactive: [10] 95 % of control | [11] 93 % of control | [1] 90 % of control | [2] 94 % of control
